US20260256741A1, “ANTICANCER MALEIMIDE DERIVATIVES FOR USE WITH IMMUNE CHECKPOINT BLOCKADE” (BROWN UNIVERSITY, priority 2022, published 2026)

Columns and labels:
Assay type in all cases: cell-based, human
TALL-104 cells = assay: 10x single-cell sequencing, TALL-104; conditions: 1 μM, 24 hours vs DMSO
Experimental: Single cells were captured and 3′ single-cell gene expression libraries were conducted (Next GEM v3.1) using the 10× Genomics Chromium system by SingulOmics (SingulOmics, New York, NY, USA). Gene expression libraries were sequenced with ~200 million PE150 reads per sample on Illumina (RRID: SCR_016387) NovaSeq (Illumina, Inc., San Diego, CA, USA). After sequencing clean reads were then analyzed with human reference genome GRCh38 using Cell Ranger v6.1.2 ([RRID: SCR_017344],10× Genomics, Pleasanton, CA, USA). Data were analyzed and visualized using Loupe Browser ([RRID: SCR_018555], 10× Genomics, Pleasanton, CA, USA).

HCT 116 GFP+ cells = assay: Single-color GFP+ immune cell co-culture, HCT 116; conditions: 48 hours
Experimental: 50,000 HT-29 or HCT 116 cells were seeded in a 12-well tissue culture plate and allowed to adhere overnight. They were then transduced with lentivirus containing the plasmid pLenti_CMV_GFP_Hygro [pLenti CMV GFP Hygro (656-4) was a gift from Eric Campeau & Paul Kaufman (Addgene viral prep #17446-LV; RRID: Addgene_17446)] at a multiplicity of infection of 10 with 8 μg/mL polybrene (hexadimethrine bromide [Cat #107689, Sigma Aldrich, St. Louis, MO, USA) for 24 hours before washing with PBS and replacing with fresh medium (49). The cells were then sorted for GFP-positivity using a BD FACSAria™ III Cell Sorter (RRID: SCR_016695).
5000 HT-29 GFP+ or HCT 116 GFP+ cells were plated per well in a clear-bottom, black-walled 96-well tissue culture plate and were allowed to adhere overnight. Cells were subsequently treated with DMSO, 5 μM elraglusib, and/or 5000 TALL-104 or NK-92 cells (for an effector-to-tumor ratio of 1:1) for 48 hours. Nine images were taken per well at 10× magnification using a Molecular Devices ImageXpress® Confocal HT.ai High-Content Imaging System and quantified for the number of GFP+ objects using the MetaXpress (RRID: SCR_016654) software (Molecular Devices, San Jose, CA, USA). 40× Images were also taken at 24 hours for representative images of cellular morphology changes. Statistical analysis was done using GraphPad Prism 9 (RRID: SCR_002798).

SW480 MSS CRC cells = assay: Multicolor co-culture of SW480 CRC cells and TALL-104 T cells, EthD-1 dead cells; conditions: for percentage of dead cells out of total cells (average, normalized): 24 hours, 1:1 E:T
Experimental: 10,000 HCT-116, SW480, or HT-29 cells were plated per well in a clear-bottom, black-walled 48-well tissue culture plate and were allowed to adhere overnight. […] CRC cells were labeled using CellTracker™ Green CMFDA (5-chloromethylfluorescein diacetate), immune cells (NK-92, TALL-104) were labeled using CellTracker™ Blue CMAC Dye (7-amino-4-chloromethylcoumarin), and ethidium homodimer-1 (EthD-1) was used as a marker of cell death (Invitrogen, Waltham, MA). 10× images were captured using a Nikon Ti-U Inverted Fluorescence Microscope and NIS-Elements F Package imaging software 3.22.00 Build 710 (Nikon Instruments Inc, USA). The number of red/green color cells in random fields was determined using thresholding and particle analysis in the Fiji modification (RRID: SCR_002285) of ImageJ and expressed as a dead/live cell ratio. Normalization was carried out by subtracting the percentage of cell death due to drug or vehicle control (DMSO) only from the percentage of dead cells observed in the co-culture of tumor and immune cells treated with the drug. At least 100 cells were evaluated per sample, with 3 independent replicates. Statistical analysis was done using GraphPad Prism 9 (RRID: SCR_002798).

Q: For `Cn1cc(C2=C(c3coc4ccc(F)cc34)C(=O)NC2=O)c2cc3c(cc21)OCO3` [elraglusib, 3-(5-fluorobenzofuran-3-yl)-4-(5-methyl-5H-[1,3]dioxolo[4,5-f]indol-7-yl)-1H-pyrrole-2,5-dione], which “immune cell activation marker CD69 expression” value (TALL-104 cells) is on record?
A: increase

Q: And the “immune cell chemoattractant CXCR4 expression” value (TALL-104 cells)?
A: increase

Q: And the “immunosuppressive marker CHI3L1 expression” value (TALL-104 cells)?
A: decrease

Q: What about the tumor cell death (HCT 116 GFP+ cells; 5 μM elraglusib and NK-92 cells vs drug-only or immune cell-only) of the same compound?
A: increased tumor cell death

Q: And the “GFP+ cells per low-powered field” value (HCT 116 GFP+ cells; 5 μM elraglusib only vs DMSO only control)?
A: significant decrease

Q: And the “number of GFP+ cells per field” value (HCT 116 GFP+ cells; TALL-104 and 5 μM elraglusib vs TALL-104 only)?
A: significant decrease

Q: And the “percentage of dead cells out of total cells (average, normalized)” value (SW480 MSS CRC cells; co-culture with TALL-104, 5 μM)?
A: 60%

Q: And the “percentage of dead cells out of total cells (average, normalized)” value (SW480 MSS CRC cells; co-culture with TALL-104, 10 μM)?
A: 65%

Q: What about the “tumor cell death in SW480 monocultures” value (SW480 MSS CRC cells; drug only, no immune cells) of the same compound?
A: limited tumor cell death

Q: And the “percentage of dead cells (average, normalized)” value (SW480 MSS CRC cells; tumor cells pre-treated with 5 μM for 24 hours, then 24-hour co-culture with TALL-104)?
A: 65%
